Laboratory results as given in PubChem BioAssay (NCI).
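Growth conditions: 96-well plates. Treatment: test compound, 48 hours, 5 concentrations. Analysis: linear interpolation between bracketing concentrations; unreached endpoints set to highest concentration. GI50 marks 50% less growth. TGI is the concentration that stops growth completely.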

What was measured:
Test in all cases: growth of human tumour cells (NCI), 48 h
[1] = tested on: RPMI-8226 leukemia
[2] = tested on: OVCAR-3 ovarian
[3] = tested on: MALME-3M melanoma
[4] = tested on: MDA-MB-435
[5] = tested on: SN12C renal
[6] = tested on: HCT-15 colon
[7] = tested on: SR leukemia
[8] = tested on: ACHN renal
[9] = tested on: OVCAR-5 ovarian
[10] = tested on: NCI-H460 lung
[11] = tested on: SK-MEL-5 melanoma
[12] = tested on: OVCAR-8 ovarian
[13] = tested on: HL-60(TB) leukemia
[14] = tested on: TK-10 renal
[15] = tested on: PC-3 prostate
[16] = tested on: EKVX NSCLC
[17] = tested on: CAKI-1 renal
[18] = tested on: SF-295 CNS
[19] = tested on: K-562 leukemia
[20] = tested on: NCI/ADR-RES ovarian
[21] = tested on: MCF7 breast
[22] = tested on: HOP-62 NSCLC
[23] = tested on: HT29 colon
[24] = tested on: 786-0 renal
[25] = tested on: BT-549 breast
[26] = tested on: A549 NSCLC
[27] = tested on: RXF 393 renal
[28] = tested on: SK-OV-3 ovarian
[29] = tested on: DU-145 prostate

For `COC1=CC(c2ccc[nH]2)=N/C1=C\c1[nH]c(C)c(C(=O)CCCCC(=O)NCc2ccccc2)c1C`, the TGI [1] was 6.52 µM, the GI50 [2] was 1.43 µM and the TGI [2] was 2.89 µM. The GI50 [3] was 2.56 µM, the TGI [3] was 5.57 µM and the GI50 [4] was 1.61 µM. The TGI [4] was 3.72 µM, the GI50 [5] was 3.82 µM and the TGI [5] was 18.4 µM. For the same molecule, the GI50 [6] was 0.845 µM, the TGI [6] was 2.25 µM and the GI50 [7] was 1.14 µM. It also gave a TGI [7] of 3.3 µM, a GI50 [8] of 2.49 µM and a TGI [8] of 8.11 µM. It also gave a GI50 [9] of 7.18 µM, a TGI [9] of 21.3 µM and a GI50 [10] of 1.99 µM. The TGI [10] was 5.34 µM, the GI50 [11] was 10.8 µM and the TGI [11] was 23.4 µM. For the same molecule, the GI50 [12] was 5.85 µM, the TGI [12] was 23.3 µM and the GI50 [13] was 2.2 µM. It also gave a TGI [13] of 7.33 µM, a GI50 [14] of 2.15 µM and a TGI [14] of 4.63 µM. It also gave a GI50 [15] of 1.57 µM, a TGI [15] of 3.99 µM and a GI50 [16] of 4.2 µM. It also gave a TGI [16] of 18.1 µM, a GI50 [17] of 2.54 µM and a TGI [17] of 13.4 µM. It also gave a GI50 [18] of 1.87 µM, a TGI [18] of 7.23 µM and a GI50 [19] of 1.73 µM. It also gave a TGI [19] of 4.72 µM, a GI50 [20] of 2.17 µM and a TGI [20] of 5.36 µM. The GI50 [21] was 1.6 µM, the TGI [21] was 3.44 µM and the GI50 [22] was 2.87 µM. For the same molecule, the TGI [22] was 10.2 µM, the GI50 [23] was 0.723 µM and the TGI [23] was 5.67 µM. For the same molecule, the GI50 [24] was 2.4 µM, the TGI [24] was 6.69 µM and the GI50 [25] was 2.1 µM. For the same molecule, the TGI [25] was 7.12 µM, the GI50 [26] was 3.56 µM and the TGI [26] was 16.9 µM. The GI50 [27] was 1.9 µM, the TGI [27] was 4.58 µM and the GI50 [28] was 14.8 µM. The TGI [28] was 31.1 µM, the GI50 [29] was 1.64 µM and the TGI [29] was 3.53 µM.
